Assay results reported in patent US6294674A, “Dibenzofuran sulfonamide matrix metalloproteinase inhibitors” (priority 1999, dated 2001).
Like-named read-outs stand apart in the source and are kept apart here.

What was measured:
[1] = molecular target: gelatinase A catalytic domain (MMP02); assay: Thiopeptolide assay, gelatinase A catalytic domain (GCD, MMP02); type: biochemical
MMP07 = molecular target: T1, MMP07 (Homo sapiens, UniProt P09237); assay: Thiopeptolide assay, MMP07; type: biochemical
T1 construct: made in house; host or cells: Escherichia coli
T1 sequence (P09237 95-267): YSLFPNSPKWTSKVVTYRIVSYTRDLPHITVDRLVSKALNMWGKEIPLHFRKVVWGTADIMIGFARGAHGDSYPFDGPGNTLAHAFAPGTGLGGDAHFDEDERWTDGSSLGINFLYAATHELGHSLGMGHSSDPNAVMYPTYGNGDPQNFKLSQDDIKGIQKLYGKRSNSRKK

MMP01 = molecular target: T2, MMP01 (Homo sapiens, UniProt P03956); assay: Thiopeptolide assay, MMP01; type: biochemical
T2 construct: purchased Washington University School of Medicine, St. Louis, Mo
T2 sequence (P03956 100-469): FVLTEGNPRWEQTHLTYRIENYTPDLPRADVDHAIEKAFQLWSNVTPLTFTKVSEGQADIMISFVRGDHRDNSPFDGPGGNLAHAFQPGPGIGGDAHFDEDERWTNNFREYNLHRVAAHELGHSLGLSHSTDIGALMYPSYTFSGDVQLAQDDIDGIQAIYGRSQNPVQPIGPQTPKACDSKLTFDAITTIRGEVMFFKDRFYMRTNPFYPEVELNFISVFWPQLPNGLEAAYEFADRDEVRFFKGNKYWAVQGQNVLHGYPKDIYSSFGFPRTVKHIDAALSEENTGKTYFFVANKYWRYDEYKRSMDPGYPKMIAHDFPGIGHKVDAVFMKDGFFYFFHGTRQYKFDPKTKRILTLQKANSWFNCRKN

[2] = molecular target: T3, stromelysin-1 catalytic domain (MMP03) (Homo sapiens, UniProt P08254); assay: Thiopeptolide assay, stromelysin-1 catalytic domain (SCD, MMP03); type: biochemical
T3 construct: SCD (stromelysin-1 catalytic domain); made in house; host or cells: Escherichia coli

MMP13 = assay: Thiopeptolide assay, MMP13; type: biochemical, human; conditions: Table 1
Description: MMP01, MMP07, MMP09, and MMP13 activity was assayed in a method similar to MMP02 and MMP03 (SCD and GCD). MMP01 and MMP09 can be obtained from Washington University School of Medicine, St. Louis, Mo. MMP07 can be obtained in accordance with the known procedure set forth by Ye QZ, Johnson L. L., and Baragi V., "Gene Syntheses and Expression in E. coli for PUMP, a Human Matrix Metalloproteinase" Biochem. and Biophys. […] MMP 13 can be obtained in accordance with the known procedure set forth by Freije J. M. P., et al., "Molecular Cloning and Expression of Collegenase-3, a Novel Human Matrix Metalloproteinase Produced by Breast Carcinomas" J. Bio.
Hydrolysis of the thiopeptolide substrate Ac-Pro-Leu-Gly-thioester-Leu-Leu-Gly-OEt (Bachem) is used as the primary screen to determine IC50 values for MMP inhibitors. A 100 μL reaction contains 1 mM 5,5'-dithiobis(2-nitrobenzoic acid) (DTNB), 100 μM substrate, 0.1% Brij, enzyme, and inhibitor in the appropriate reaction buffer. Activated full-length enzymes are assayed at 5 nM, Stromelysin Catalytic Domain (SCD) at 10 nM, and Gelatinase A Catalytic Domain (GaCD) at 1 nM. Inhibitors are screened from 100 μM to 1 nM. Full-length enzymes are assayed in 50 mM HEPES, 10 mM CaCl2, pH 7.0; SCD in 50 mM MES, 10 mM CaCl2, pH 6.0; and GaCD in 50 mM MOPS, 10 mM CaCl2, 10 μM ZnCl2, pH 7.0.

[3] = tested on: human ovarian carcinoma xenografts; conditions: Davies, et al., Cancer Res., 1993; cited from earlier work
[4] = MMP Inhibitor Bioassay (plasma levels after gavage); type: in vivo; conditions: rat, po, 50 mg/kg by gavage
Description: Animals are dosed by gavage with either vehicle or compound at 2, 10, or 50 mg/kg. Blood samples are collected from 3-4 animals from each dosing group at 1, 2, 4, 6, and 24 hour postdose, centrifuged, and the plasma immediately frozen at -20° C. Plasma protein is precipitated with an equal volume of acetonitrile and separated by centrifugation at room temperature. The supernate is evaporated to dryness and reconstituted to the original plasma volume with 50 mM Tris, pH 7.6. Ten-fold serial dilutions of the reconstituted plasma samples are prepared in 50 mM Tris, pH 7.6 for dose response assays using the appropriate thiopeptolide assay. The concentration of plasma which yields 50% inhibition of enzyme is determined and used to calculate the inhibitor plasma level from the known IC50 value. […] All control samples are subjected to acetonitrile precipitation and analyzed with the thiopeptolide assay.

MMP09 = molecular target: T4, MMP09 (Homo sapiens, UniProt P14780); assay: Thiopeptolide assay, MMP09; type: biochemical; conditions: Table 1
T4 construct: purchased Washington University School of Medicine, St. Louis, Mo
Description: IC50 values were determined using a thiopeptolide substrate, Ac-Pro-Leu-Gly-thioester-Leu-Leu-Gly-OEt (Ye Q.-Z., Johnson L. L., Hupe D. J., and Baragi V., "Purification and Characterization of the Human Stromelysin Catalytic Domain Expressed in Escherichia coli," Biochemistry, 1992;31:11231-11235). MMP01, MMP07, MMP09, and MMP13 activity was assayed in a method similar to MMP02 and MMP03 (SCD and GCD). MMP01 and MMP09 can be obtained from Washington University School of Medicine, St. Louis, Mo. MMP07 can be obtained in accordance with the known procedure set forth by Ye QZ, Johnson L. L., and Baragi V., "Gene Syntheses and Expression in E. coli for PUMP, a Human Matrix Metalloproteinase" Biochem. and Biophys. Res. Comm., 1992; 186:143-149. MMP 13 can be obtained in accordance with the known procedure set forth by Freije J. M. P., et al., "Molecular Cloning and Expression of Collegenase-3, a Novel Human Matrix Metalloproteinase Produced by Breast Carcinomas" J. Bio. Chem., 1994;269:16766-6773.
Hydrolysis of the thiopeptolide substrate Ac-Pro-Leu-Gly-thioester-Leu-Leu-Gly-OEt (Bachem) is used as the primary screen to determine IC50 values for MMP inhibitors. […] The change in absorbance at 405 riM is monitored on a ThermoMax microplate reader at room temperature continuously for 20 minutes.

MMP-13CD = assay: Thiopeptolide assay, MMP-13CD; type: biochemical, human; conditions: Tables 2, 3, 5, 7
[5] = tested on: experimental allergic encephalomyelitis (EAE); conditions: Gijbels, et al., J. Clin. Invest., 1994; cited from earlier work
[6] = tested on: bovine nasal and pig articular cartilage; conditions: Andrews et al. 1992; Ellis et al. 1994; cited from earlier work
[7] = Table 1, GCD, read-out: IC50 MMP02
[8] = Table 1, SCD, read-out: IC50 MMP03
[9] = Tables 2, 3, 5, 7, read-out: IC50 MMP-2CD
[10] = Tables 2, 3, 5, 7, read-out: IC50 MMP-7
[11] = Tables 2, 3, 5, 7, read-out: IC50 MMP1
[12] = Tables 2, 3, 5, 7, read-out: IC50 MMP 3CD

T3 sequence (P08254 100-272 limits assumed): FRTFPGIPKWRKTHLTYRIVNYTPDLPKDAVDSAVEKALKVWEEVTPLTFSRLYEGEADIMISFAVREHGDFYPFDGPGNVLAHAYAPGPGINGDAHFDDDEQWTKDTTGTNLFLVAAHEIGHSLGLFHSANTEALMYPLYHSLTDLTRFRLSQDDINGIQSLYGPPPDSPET
T4 sequence (P14780 107-707 limits assumed): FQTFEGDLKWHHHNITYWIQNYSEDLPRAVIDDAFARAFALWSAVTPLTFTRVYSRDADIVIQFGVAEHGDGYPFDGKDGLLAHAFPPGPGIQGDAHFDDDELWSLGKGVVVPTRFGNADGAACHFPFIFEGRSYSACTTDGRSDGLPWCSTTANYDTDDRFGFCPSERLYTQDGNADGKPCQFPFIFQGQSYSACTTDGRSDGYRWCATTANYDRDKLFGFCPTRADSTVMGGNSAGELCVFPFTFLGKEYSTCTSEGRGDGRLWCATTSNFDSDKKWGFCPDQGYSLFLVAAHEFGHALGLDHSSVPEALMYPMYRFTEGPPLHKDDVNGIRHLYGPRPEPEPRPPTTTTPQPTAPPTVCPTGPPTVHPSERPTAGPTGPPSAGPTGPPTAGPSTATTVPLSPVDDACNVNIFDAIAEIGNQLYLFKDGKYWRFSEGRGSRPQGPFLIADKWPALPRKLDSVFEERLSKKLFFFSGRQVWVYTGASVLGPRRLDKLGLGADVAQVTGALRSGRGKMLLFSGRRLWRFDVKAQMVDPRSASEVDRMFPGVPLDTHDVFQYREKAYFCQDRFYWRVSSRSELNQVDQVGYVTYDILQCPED

Compound | IC50 [1, 7] [nM] | IC50 (MMP07; Table 1, read-out: IC50 MMP07) [nM] | IC50 (MMP01; Table 1, read-out: IC50 MMP01) [nM] | IC50 [2, 8] [nM] | IC50 (MMP13) [nM] | IC50 [1, 9] [nM] | IC50 (MMP07; [10]) [nM] | IC50 (MMP-13CD) [nM] | IC50 (MMP01; [11]) [nM] | IC50 [2, 12] [nM] | other results
2-(Dibenzofuran-2-sulfonylamino)-pentanedioic acid 1-tert-butyl Ester [Example 4] | 120 | 3700 | 91000 | 460 | 350 |  |  |  |  |  | 
CNC(=O)[C@H](Cc1ccccc1)NC(=O)[C@H](CC(C)C)[C@H](CSc1cccs1)C(=O)NO [BB-94] |  |  |  |  |  |  |  |  |  |  | survival [3]: prolonged the survival of mice; tumor burden [3]: decreased the tumor burden
O=C(O)[C@H](CCc1ccccc1)NS(=O)(=O)c1ccc2oc3ccccc3c2c1 [Example 1, (S)-2-(Dibenzofuran-2-sulfonylamino)-4-phenyl-butyric acid] | 270 |  | 47000 |  |  |  |  |  |  |  | concentration at 24 h ([4]; 24 hours, read-out: plasma levels at 24 hours postdose): 29 µM; Cmax ([4]; at 1 to 4 hours, read-out: peak plasma levels): 71 µM; Tmax ([4]; read-out: time of peak plasma levels): 1 to 4 h; IC50 (MMP09): 67000 nM
O=C(CC[C@H](NS(=O)(=O)c1ccc2oc3ccccc3c2c1)C(=O)O)NCCc1ccccc1 [Example 5, 2-(Dibenzofuran-2-sulfonylamino)-4-phenethylcarbamoyl-butyric acid] | 76 | 6550 | 39000 | 325 | 280 |  |  |  |  |  | 
CCCc1ccc(C(=O)CC(NS(=O)(=O)c2ccc3oc4ccccc4c3c2)C(=O)O)cc1 (stereo not drawn) [Example 6] | 2400 | 87000 | 100000 | 3700 | 7100 |  |  |  |  |  | 
O=C(O)[C@H](CCc1ccccc1)NS(=O)(=O)c1ccc2sc3ccccc3c2c1 [Example 7, 2-(Dibenzothiophene-2-sulfonylamino)-4phenyl-butyric acid] | 780 | 82000 | 100000 | 1300 | 5800 |  |  |  |  |  | 
O=C(O)[C@H](CCc1ccccc1)NS(=O)(=O)c1ccc2c(c1)oc1ccccc12 [Example 8] | 3.8 | 1200 | 3500 | 13 | 32 |  |  |  |  |  | 
O=C(O)[C@H](CCc1ccccc1)NS(=O)(=O)c1ccc2c(c1)Cc1ccccc1-2 [Example 9, (S)-2-(9H-Fluorene-2-sulfonylamino)-4-phenyl-butyric acid] | 24 | 2550 | 49500 | 46.5 | 330 |  |  |  |  |  | IC50 (MMP09): 100000 nM
O=C(CCC(NS(=O)(=O)c1ccc2oc3ccccc3c2c1)C(=O)O)Nc1ccc(Cl)cc1 (stereo not drawn) [Example F12, 4-(4-Chloro-phenylcarbamoyl)-2-(dibenzofuran-2-sulfonylamino)-butyric acid] |  |  |  |  |  | 300 | 32400 | 3700 | > 100000 | 700 | 
O=C(CCC(NS(=O)(=O)c1ccc2oc3ccccc3c2c1)C(=O)O)NCCCCc1ccccc1 (stereo not drawn) [Example F13, 2-(Dibenzofuran-2-sulfonylamino)-4-(4-phenyl-butylcarbamoyl)-butyric acid] |  |  |  |  |  | 9300 | > 100000 | 24100 | > 100000 | 26500 | 
Cn1cccc1CCNC(=O)CCC(NS(=O)(=O)c1ccc2oc3ccccc3c2c1)C(=O)O (stereo not drawn) [Example F14, 2-(Dibenzofuran-2-sulfonylamino)-4-[2-(1-methyl-1H-pyrrol-2-yl)-ethylcarbamoyl]-butyric acid] |  |  |  |  |  | 400 | 57600 | 2400 | > 100000 | 1400 | 
COc1ccccc1CNC(=O)CCC(NS(=O)(=O)c1ccc2oc3ccccc3c2c1)C(=O)O (stereo not drawn) [Example F15, 2-(Dibenzofuran-2-sulfonylamino)-4-(2-methoxy-benzylcarbamoyl)-butyric acid] |  |  |  |  |  | 300 | 36900 | 600 | > 100000 | 1800 | 
O=C(CCC(NS(=O)(=O)c1ccc2oc3ccccc3c2c1)C(=O)O)NCc1cccc2ccccc12 (stereo not drawn) [Example F16] |  |  |  |  |  | 400 | 22100 | 1000 | > 100000 | 1100 | 
CNC(=O)[C@H](Cc1c[nH]c2ccccc12)NC(=O)[C@@H](CC(=O)NO)CC(C)C [GM6001] |  |  |  |  |  |  |  |  |  |  | effect on EAE [5]: suppressed the development or reversed the clinical expression of experimental allergic encephalomyelitis (EAE) in a dose dependent manner
TIMP-1: TIMP-1; TIMPs are natural endogenous inhibitors of MMPs |  |  |  |  |  |  |  |  |  |  | formation of collagen fragments [6]: prevented the formation of collagen fragments
